Data: ChEMBL document CHEMBL3046192, “Development of new fungicides against Magnaporthe grisea: synthesis and biological activity of pyrazolo[3,4-d][1,3]thiazine, pyrazolo[1,5-c][1,3,5]thiadiazine, and pyrazolo[3,4-d]pyrimidine derivatives” (J Agric Food Chem, 2002)
Calls of active or inactive are those of the source. The rule behind the calls is not given here.

How the values were obtained:
[1] = test system: Pyricularia grisea; assay: microbe, parasite or virus in culture; assay type: functional; details: ATCC 64413, 120 h
[2] = test system: Pyricularia grisea; assay: microbe, parasite or virus in culture; assay type: functional; details: ATCC 64413, 120 h; remark: listed apart in the source
[3] = test system: Pyricularia grisea; assay: microbe, parasite or virus in culture; assay type: functional; details: ATCC 64413, 120 h; remark: listed apart in the source
[4] = test system: Pyricularia grisea; assay: microbe, parasite or virus in culture; assay type: functional; details: ATCC 64413, 120 h; remark: listed apart in the source
[5] = test system: Pyricularia grisea; assay: Antifungal activity against Magnaporthe grisea ATCC 64413 assessed as depigmentation of mycelium at 200 ug/ml; assay type: functional, organism-based
[6] = test system: Pyricularia grisea; assay: Antifungal activity against Magnaporthe grisea ATCC 64413 infected rice plant assessed as growth inhibition at 1 to 10 ug/ml after 5 days; assay type: functional, organism-based
[7] = test system: Oryza sativa; assay: Toxicity in Oryza sativa (rice) assessed as seedling growth at 1 to 10 ug/ml after 10 days; assay type: organism-based; details: in vivo, 240 h
[8] = test system: Oryza sativa; assay: Toxicity in Oryza sativa (rice) assessed as cell culture growth at 1 to 10 ug/ml after 10 days; assay type: organism-based; details: 240 h
[9] = test system: Oryza sativa; assay: Toxicity in Oryza sativa (rice) assessed as seedling growth at >10 ug/ml after 10 days; assay type: organism-based; details: in vivo, 240 h

Row | Structure (SMILES) | inhibition at 10 µg/mL [1] | inhibition at 50 µg/mL [2] | inhibition at 100 µg/mL [3] | inhibition at 200 µg/mL [4] | Activity [5] | Activity [6] | Activity [7] | Activity [8] | Activity [9]
1 | Cc1nn(C(C)(C)C)c2nc(C(F)(F)F)[nH]c(=S)c12 | 25% | 31% | 35% | 44% | – | – | – | – | –
2 | O=c1sc(-c2ccccc2)nc2ccnn12 | 67% | 70.2% | 73.1% | 75.1% | – | – | – | – | –
3 | Cc1cc2nc(-c3ccc(Cl)cc3)sc(=O)n2n1 | 17% | 62% | 66% | 66% | – | – | – | – | –
4 | Cc1cc2nc(-c3ccc(Br)cc3)sc(=O)n2n1 | 47% | 47% | 58% | 74% | – | – | – | – | –
5 | Cc1nn(-c2cccc([N+](=O)[O-])c2)c2nc(C(F)(F)F)sc(=S)c12 | 71.2% | 89.1% | 91.7% | 100% | – | – | – | – | –
6 | Cc1nn(-c2ccccc2)c2nc(C(F)(F)F)sc(=S)c12 | – | – | 29.6% | 43.8% | – | – | – | – | –
7 | Cc1cc2nc(C(F)(F)F)sc(=S)n2n1 | 48.4% | 79.6% | 79.7% | 93.2% | – | – | – | – | –
8 | Cc1n[nH]c2nc(Cc3ccccc3)sc(=S)c12 | 73% | 75% | 76% | 77% | Active | – | – | – | –
9 | Cc1nn(-c2ccc(Cl)c(Cl)c2)c2nc(C(F)(F)F)sc(=S)c12 | 57.7% | 83.1% | 90.5% | 100% | – | – | – | – | –
10 | Cc1nn(C(C)(C)C)c2nc(C(F)(F)F)sc(=S)c12 | – | – | 42.7% | 58.3% | – | – | – | – | –
11 | Cc1nn(-c2cccc([N+](=O)[O-])c2)c2nc(C(F)(F)F)[nH]c(=S)c12 | 32% | 61% | 78% | 95.9% | – | – | – | – | –
12 | O=c1sc(-c2ccccc2)nc2cc(-c3ccccc3)nn12 | 15% | 15% | 15% | 15% | – | – | – | – | –
13 | Cc1cccc2sc3nncn3c12 [TRICYCLAZOLE] | 0% | 23.5% | 61.5% | 94% | – | – | – | – | –
14 | Cc1n[nH]c2nc(-c3ccccc3)sc(=O)c12 | 16% | 24% | 28% | 30% | – | – | – | – | –
15 | Cc1n[nH]c2nc(-c3ccccc3)sc(=S)c12 | 14% | 15% | 17% | 21% | – | – | – | – | –
16 | Cc1nn(-c2ccccc2)c2nc(C(F)(F)F)[nH]c(=S)c12 | 23% | 37% | 55% | 58% | – | – | – | – | –
17 | Cc1nn(-c2ccc(Cl)c(Cl)c2)c2nc(C(F)(F)F)[nH]c(=S)c12 | 52% | 91% | 100% | 100% | – | – | – | – | –
18 | Cc1nn(-c2cccc([N+](=O)[O-])c2)c2nc(C(F)(F)F)sc(=O)c12 | 21.9% | 39.6% | 54.4% | 81.1% | – | – | – | – | –
19 | Cc1cc2nc(C(F)(F)F)sc(=O)n2n1 | 64.5% | 97.9% | 99.5% | 100% | – | – | – | – | –
20 | Cc1nn(C(C)(C)C)c2nc(-c3ccccc3)sc(=O)c12 | 14% | 14% | 16% | 19% | – | – | – | – | –
21 | Cc1cc2nc(-c3ccccc3)sc(=O)n2n1 | 92.4% | 100% | 100% | 100% | – | Active | Non-toxic | Non-toxic | Toxic
22 | Cc1nn(C(C)(C)C)c2nc(-c3ccccc3)sc(=S)c12 | 14% | 16% | 16% | 17% | – | – | – | – | –
23 | Cc1n[nH]c2nc(Cc3ccccc3)sc(=O)c12 | 30% | 57% | 77% | 80% | – | – | – | – | –
